Data: patent US5061794A, “Cephalosporin derivatives, and antibacterial agents” (priority 1986, dated 1991)
Values after ≈ are worked out from the molar mass of the structure shown. Where two headings read alike, the source gives them in different places.

Key:
E. coli CSH(RE45) = test: microbe, parasite or virus in culture; type: cell-based; conditions: Escherichia coli, 16 h, read-out: Minimum Inhibitory Concentration (MIC), *E. coli CSH(RE45), lactamase-producing strain; 10^6 CFU/ml
Summary of the method: (§1)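 MIC in μg/ml, read after 16 h at 37° C. on Mueller Hinton agar carrying graded compound levels; inoculum 10^6 CFU/ml from overnight Mueller Hinton broth.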

E. coli CSH2 (RK1) = test: microbe, parasite or virus in culture; type: cell-based; conditions: Escherichia coli, 16 h, read-out: Minimum Inhibitory Concentration (MIC), *E. coli CSH2 (RK1), lactamase-producing strain; 10^6 CFU/ml
Summary of the method: as §1

E. cloacae 963 = test: in vitro antibacterial activity, agar plate dilution method (MIC); type: cell-based; conditions: Enterobacter cloacae, 963, 16 h, read-out: Minimum Inhibitory Concentration (MIC), E. cloacae 963; 10^6 CFU/ml
Summary of the method: as §1

E. cloacae Nek 39 = test: as above; type: cell-based; conditions: Enterobacter cloacae, NEK39, 16 h, 10^6 CFU/ml
Summary of the method: as §1

E. coli GN5482 = test: as above; type: cell-based; conditions: Escherichia coli
Summary of the method: as §1

E. coli NIHJ JC2 = test: as above; type: cell-based; conditions: Escherichia coli, NIHJJC2, 16 h, read-out: Minimum Inhibitory Concentration (MIC), E. coli NIHJ JC2, 10^6 CFU/ml, 37° C.
Summary of the method: as §1

K. oxytoca GN10650 = test: as above; type: cell-based; conditions: Klebsiella oxytoca, 10^6 CFU/ml
Summary of the method: as §1

K. pneumoniae No. 42 = test: as above; type: cell-based; conditions: Klebsiella pneumoniae, NO.42, 16 h, read-out: Minimum Inhibitory Concentration (MIC), *K. pneumoniae No. 42, lactamase-producing strain; 10^6 CFU/ml
Summary of the method: as §1

K. pneumoniae PCI-602 = test: as above; type: cell-based; conditions: Klebsiella pneumoniae, PCI602, 16 h, 10^6 CFU/ml
Summary of the method: as §1

M. morganii GN5407 = test: as above; type: cell-based; conditions: Morganella morganii, GN5407, 16 h, read-out: Minimum Inhibitory Concentration (MIC), *M. morganii GN5407, lactamase-producing strain; 10^6 CFU/ml
Summary of the method: as §1

P. vulgaris HX-19 = test: as above; type: cell-based; conditions: Proteus vulgaris, HX19, 16 h, P. vulgaris HX-19; 10^6 CFU/ml; read-out: Minimum Inhibitory Concentration (MIC)
Summary of the method: as §1

P. vulgaris No. 33 = test: as above; type: cell-based; conditions: Proteus vulgaris, 10^6 CFU/ml
Summary of the method: as §1

S. aureus 209P NIHJ-JC1 = test: as above; type: cell-based; conditions: Staphylococcus aureus, 16 h
Summary of the method: as §1

S. marcescens IAM 1184 = test: as above; type: cell-based; conditions: Serratia marcescens, IAM1184, 16 h, read-out: Minimum Inhibitory Concentration (MIC)
Summary of the method: as §1

S. marcescens No. 16-2 = test: as above; type: cell-based; conditions: Serratia marcescens, NO.162, 16 h, 10^6 CFU/ml
Summary of the method: as §1

Ps. aeruginosa AK 109 = test: as above; type: cell-based, Pseudomonas aeruginosa; conditions: Pseudomonas aeruginosa, AK109, 16 h, 10^6 CFU/ml
Summary of the method: as §1

Ps. aeruginosa AKR17 = test: as above; type: cell-based, Pseudomonas aeruginosa; conditions: Pseudomonas aeruginosa, 16 h; Ps. aeruginosa AKR17; 10^6 CFU/ml; read-out: Minimum Inhibitory Concentration (MIC)
Summary of the method: as §1

Ps. aeruginosa IF03445 = test: as above; type: cell-based, Pseudomonas aeruginosa; conditions: Pseudomonas aeruginosa, 10^6 CFU/ml
Summary of the method: as §1

Ps. cepacia 23 = test: as above; type: cell-based, Pseudomonas cepacia; conditions: read-out: Minimum Inhibitory Concentration (MIC)
Summary of the method: as §1

A. calcoaceticus No. 4 = test: as above; type: cell-based, Acinetobacter calcoaceticus; conditions: Acinetobacter calcoaceticus, NO.4, 16 h, 10^6 CFU/ml
Summary of the method: as §1

[1] = read-out: Minimum Inhibitory Concentration (MIC), *E. cloacae Nek 39, lactamase-producing strain
[2] = 16 h, *K. oxytoca GN10650, lactamase-producing strain, read-out: Minimum Inhibitory Concentration (MIC)
[3] = K. pneumoniae PCI-602, read-out: Minimum Inhibitory Concentration (MIC)
[4] = NO.33, 16 h, read-out: Minimum Inhibitory Concentration (MIC), *P. vulgaris No. 33, lactamase-producing strain
[5] = S. aureus 209P NIHJ-JC1, 10^6 CFU/ml, 37° C., 16 hours, read-out: Minimum Inhibitory Concentration (MIC)
[6] = *S. marcescens No. 16-2, lactamase-producing strain, read-out: Minimum Inhibitory Concentration (MIC)
[7] = Ps. aeruginosa AK 109, read-out: Minimum Inhibitory Concentration (MIC)
[8] = 16 h, Ps. aeruginosa IF03445, read-out: Minimum Inhibitory Concentration (MIC)
[9] = A. calcoaceticus No. 4, read-out: Minimum Inhibitory Concentration (MIC)
[10] = GN5482, 16 h, read-out: Minimum Inhibitory Concentration (MIC)
[11] = GN10650, 16 h, read-out: Minimum Inhibitory Concentration (MIC), *K. oxytoca GN10650, lactamase-producing strain
[12] = read-out: Minimum Inhibitory Concentration (MIC), K. pneumoniae PCI-602
[13] = read-out: Minimum Inhibitory Concentration (MIC), A. calcoaceticus No. 4
[14] = *E. cloacae Nek 39, lactamase-producing strain, read-out: Minimum Inhibitory Concentration (MIC)
[15] = GN5482, 16 h, read-out: Minimum Inhibitory Concentration (MIC), *E. coli GN5482, lactamase-producing strain, 10^6 CFU/ml

Structure (SMILES) | MIC (E. coli CSH(RE45)) | MIC (E. coli CSH2 (RK1)) | MIC (E. cloacae 963) | MIC (E. cloacae Nek 39; [1]) | MIC (E. coli NIHJ JC2) | MIC (K. pneumoniae No. 42) | MIC (K. pneumoniae PCI-602; [3]) | MIC (M. morganii GN5407) | MIC (P. vulgaris HX-19) | MIC (P. vulgaris No. 33; [4]) | MIC (S. aureus 209P NIHJ-JC1; [5]) | MIC (S. marcescens IAM 1184) | MIC (S. marcescens No. 16-2; [6]) | MIC (Ps. aeruginosa AK 109; [7]) | MIC (Ps. aeruginosa AKR17) | MIC (Ps. aeruginosa IF03445; [8]) | MIC (Ps. cepacia 23; Burkholderia cepacia, 23, 16 h) | MIC (A. calcoaceticus No. 4; [9]) | MIC (K. oxytoca GN10650; [11]) | MIC (K. pneumoniae PCI-602; [12]) | also measured
CO/N=C(\C(=O)N[C@@H]1C(=O)N2C(C(=O)O)=C(CSc3nc(-c4ccc(OC(C)=O)cc4)c(CC(=O)O)s3)CS[C@H]12)c1csc(N)n1 [compound 18, disodium 3-[4-(4-acetoxyphenyl)-5-carboxylatemethylthiazol-2-yl]thiomethyl-7δ-[2-(2-aminothiazol-4-yl)-2-methoxyiminoacetamido]-3-cephem-4-carboxylate, reference compound] | 1.56 µg/mL | 0.78 µg/mL | 0.78 µg/mL | 12.5 µg/mL | 0.78 µg/mL | 0.78 µg/mL | 0.2 µg/mL | 0.39 µg/mL | < 0.006 µg/mL | 0.1 µg/mL | 3.12 µg/mL | 0.78 µg/mL | 100 µg/mL | > 100 µg/mL | > 100 µg/mL | 100 µg/mL | 12.5 µg/mL | 100 µg/mL | – | – | MIC (E. coli GN5482; 16 h, *E. coli GN5482, lactamase-producing strain, 10^6 CFU/ml, read-out: Minimum Inhibitory Concentration (MIC)): 3.12 µg/mL; MIC (K. oxytoca GN10650; [2]): 25 µg/mL
CC(C)(O/N=C(\C(=O)N[C@@H]1C(=O)N2C(C(=O)O)=C(CSc3nc(-c4ccc(O)cc4)c(CC(=O)O)s3)CS[C@H]12)c1csc(N)n1)C(=O)O [compound 19, reference compound] | 1.56 µg/mL (≈ 2.12 µM) | 1.56 µg/mL (≈ 2.12 µM) | 3.12 µg/mL (≈ 4.25 µM) | 6.25 µg/mL (≈ 8.51 µM) | 3.12 µg/mL (≈ 4.25 µM) | 1.56 µg/mL (≈ 2.12 µM) | – | 1.56 µg/mL (≈ 2.12 µM) | < 0.006 µg/mL | 0.05 µg/mL (≈ 0.068 µM) | 50 µg/mL (≈ 68 µM) | 0.78 µg/mL (≈ 1.06 µM) | 25 µg/mL (≈ 34 µM) | – | 25 µg/mL (≈ 34 µM) | – | – | – | 1.56 µg/mL (≈ 2.12 µM) | 0.39 µg/mL (≈ 0.531 µM) | MIC (E. coli GN5482; [10]): 3.12 µg/mL (≈ 4.25 µM); MIC (Ps. aeruginosa AK 109; read-out: Minimum Inhibitory Concentration (MIC), Ps. aeruginosa AK 109): 6.25 µg/mL (≈ 8.51 µM); MIC (Ps. aeruginosa IF03445; IF03445, 16 h, read-out: Minimum Inhibitory Concentration (MIC), Ps. aeruginosa IF03445): 12.5 µg/mL (≈ 17 µM); MIC (Ps. cepacia 23; Burkholderia cepacia, 16 h, Ps. cepacia 23, 10^6 CFU/ml): 0.2 µg/mL (≈ 0.272 µM); MIC (A. calcoaceticus No. 4; [13]): 6.25 µg/mL (≈ 8.51 µM)
CC(=O)Oc1ccc(-c2nc(SCC3=C(C(=O)O)N4C(=O)[C@@H](NC(=O)/C(=N\OC(C)(C)C(=O)O)c5csc(N)n5)[C@H]4SC3)sc2CC(=O)O)cc1 [compound 20, trisodium 3-[4-(4-acetoxyphenyl)-5-carboxylatemethylthiazol-2-yl]thiomethyl-7β-[2-(2-aminothiazol-4-yl)-2-(1-carboxylate-1-methylethoxyimino)acetamido]-3-cephem-4-carboxylate, reference compound] | 3.12 µg/mL | 3.12 µg/mL | 6.25 µg/mL | – | 3.12 µg/mL | 3.12 µg/mL | – | 3.12 µg/mL | < 0.006 µg/mL | – | 50 µg/mL | 1.56 µg/mL | 100 µg/mL | 25 µg/mL | > 100 µg/mL | 25 µg/mL | 6.25 µg/mL | > 100 µg/mL | 3.12 µg/mL | 1.56 µg/mL | MIC (E. cloacae Nek 39; [14]): 25 µg/mL; MIC (E. coli GN5482; [15]): 6.25 µg/mL; MIC (P. vulgaris No. 33; 16 h, *P. vulgaris No. 33, lactamase-producing strain, read-out: Minimum Inhibitory Concentration (MIC)): 0.1 µg/mL
CO/N=C(\C(=O)N[C@@H]1C(=O)N2C(C(=O)O)=C(CSc3ncc(-c4ccccc4)o3)CS[C@H]12)c1csc(N)n1 [compound 21, sodium 7β-[2-(2-aminothiazol-4-yl)-2methoxyiminoacetamido]-3-(5-phenyloxazol-2-yl)thiomethyl-3-cephem-4-carboxylate, reference compound] | 1.56 µg/mL | 0.78 µg/mL | 3.12 µg/mL | 6.25 µg/mL | 1.56 µg/mL | 3.12 µg/mL | 0.0125 µg/mL | 1.56 µg/mL | 0.0125 µg/mL | 0.78 µg/mL | – | 0.78 µg/mL | – | 50 µg/mL | > 100 µg/mL | 50 µg/mL | 0.78 µg/mL | – | 12.5 µg/mL | – | MIC (E. coli GN5482; [15]): 0.78 µg/mL; MIC (S. aureus 209P NIHJ-JC1; read-out: Minimum Inhibitory Concentration (MIC)): 0.39 µg/mL; MIC (S. marcescens No. 16-2; read-out: Minimum Inhibitory Concentration (MIC), *S. marcescens No. 16-2, lactamase-producing strain): 6.25 µg/mL; MIC (A. calcoaceticus No. 4; [13]): 12.5 µg/mL
CC(C)(O/N=C(\C(=O)N[C@@H]1C(=O)N2C(C(=O)O)=C(CSc3ncc(-c4ccccc4)o3)CS[C@H]12)c1csc(N)n1)C(=O)O [compound 22, disodium 7β-[2-(2-aminothiazol-4-yl)-2-(1-carboxylate-1-methylethoxyimino)acetamido]-3(5-phenyloxazol-2-yl)thiomethyl-3-cephem-4-carboxylate, reference compound] | 3.12 µg/mL | 3.12 µg/mL | 12.5 µg/mL | – | 12.5 µg/mL | 12.5 µg/mL | – | 6.25 µg/mL | < 0.006 µg/mL | 0.78 µg/mL | – | 3.12 µg/mL | 25 µg/mL | 50 µg/mL | > 100 µg/mL | 50 µg/mL | 12.5 µg/mL | > 100 µg/mL | 6.25 µg/mL | 0.1 µg/mL | MIC (E. cloacae Nek 39; [14]): 25 µg/mL; MIC (E. coli GN5482; [10]): 3.12 µg/mL; MIC (S. aureus 209P NIHJ-JC1; read-out: Minimum Inhibitory Concentration (MIC), S. aureus 209P NIHJ-JC1, 10^6 CFU/ml, 37° C., 16 hours): 6.25 µg/mL
CO/N=C(\C(=O)N[C@@H]1C(=O)N2C(C(=O)O)=C(CSc3ncc(-c4ccc(O)cc4)o3)CS[C@H]12)c1csc(N)n1 [compound 23, sodium 7β-[2-(2-aminothiazol-4-yl)-2-methoxyiminoacetamido]-3-[5-(4-hydroxyphenyl)-oxazol-2-yl]thiomethyl-3-cephem-4-carboxylate, reference compound] | 0.78 µg/mL | 0.78 µg/mL | 3.12 µg/mL | 6.25 µg/mL | 1.56 µg/mL | 3.12 µg/mL | 0.0125 µg/mL | 1.56 µg/mL | < 0.006 µg/mL | 0.78 µg/mL | 0.2 µg/mL | 0.78 µg/mL | 25 µg/mL | 50 µg/mL | > 100 µg/mL | 50 µg/mL | 3.12 µg/mL | 50 µg/mL | – | – | MIC (E. coli GN5482; [15]): 0.78 µg/mL; MIC (K. oxytoca GN10650; [2]): 25 µg/mL
